The nature of data set [1]: in vitro. The following applies: human, Caco-2.
The nature of data set [2]: MTT viability assay on SMI microtissues after drug exposure. The following applies: human, SMI (small intestinal) microtissues. Background: Tetrazolium dyes change colour on reduction, which living cells bring about.
Data set [3] has as its system SMI microtissues. The experiment in a line: Drug permeability across SMI microtissues. The following applies: for Efflux: Table VIII, 10 μM, 2 h.
For data set [4] the following is noted: cited from earlier work.
The nature of data set [5]: in vitro. The following applies: human.
The subject of data set [6] is SMI microtissues.
The target of data set [7] is P-gp (Homo sapiens, UniProt P08183). The experiment in a line: in vitro.
P-gp, sequence (P08183 whole entry): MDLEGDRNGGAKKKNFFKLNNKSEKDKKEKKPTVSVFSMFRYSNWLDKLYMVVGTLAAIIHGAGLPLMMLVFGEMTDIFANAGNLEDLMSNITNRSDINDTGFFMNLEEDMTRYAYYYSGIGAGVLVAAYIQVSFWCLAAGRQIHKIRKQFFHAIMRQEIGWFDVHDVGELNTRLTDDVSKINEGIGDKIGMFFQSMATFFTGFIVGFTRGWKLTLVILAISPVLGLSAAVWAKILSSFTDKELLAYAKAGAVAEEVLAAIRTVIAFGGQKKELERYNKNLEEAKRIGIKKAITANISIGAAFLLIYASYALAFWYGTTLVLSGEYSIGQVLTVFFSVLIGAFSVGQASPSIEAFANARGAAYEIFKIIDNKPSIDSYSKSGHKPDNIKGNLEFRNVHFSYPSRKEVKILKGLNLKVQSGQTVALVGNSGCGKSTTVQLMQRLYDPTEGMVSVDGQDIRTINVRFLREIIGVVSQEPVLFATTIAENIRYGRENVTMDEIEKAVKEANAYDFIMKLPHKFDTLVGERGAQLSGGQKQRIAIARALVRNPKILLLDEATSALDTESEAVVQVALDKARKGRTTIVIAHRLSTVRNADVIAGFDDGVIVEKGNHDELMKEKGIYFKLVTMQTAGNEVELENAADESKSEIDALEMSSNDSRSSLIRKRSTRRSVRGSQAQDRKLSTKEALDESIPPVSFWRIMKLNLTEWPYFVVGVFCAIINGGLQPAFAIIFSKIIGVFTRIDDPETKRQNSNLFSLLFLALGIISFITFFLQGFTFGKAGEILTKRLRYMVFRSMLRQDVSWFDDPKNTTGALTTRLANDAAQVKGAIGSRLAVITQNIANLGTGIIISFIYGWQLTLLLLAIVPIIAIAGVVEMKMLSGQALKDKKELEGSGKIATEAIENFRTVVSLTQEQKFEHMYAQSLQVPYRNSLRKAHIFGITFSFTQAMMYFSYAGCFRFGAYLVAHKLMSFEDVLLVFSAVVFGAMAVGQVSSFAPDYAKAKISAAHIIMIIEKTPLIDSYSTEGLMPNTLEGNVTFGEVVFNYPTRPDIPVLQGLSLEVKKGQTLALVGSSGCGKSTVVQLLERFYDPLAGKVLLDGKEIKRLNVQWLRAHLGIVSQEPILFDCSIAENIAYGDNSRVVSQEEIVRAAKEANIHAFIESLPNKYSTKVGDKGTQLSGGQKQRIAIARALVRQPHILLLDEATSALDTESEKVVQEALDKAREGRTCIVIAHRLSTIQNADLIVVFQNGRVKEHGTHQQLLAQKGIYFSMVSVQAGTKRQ
For data set [8], the system named is Caco-2 cell monolayers. The following applies: Table VI; 10 μM, 2 h.
Data set [9] is described as follows: Drug permeability across SMI microtissues. The following applies: human, A-B Papp, Table VIII, 10 μM, 2 h, n = 3.
Data set [10] concerns the target BCRP (Homo sapiens, UniProt Q9UNQ0). The experiment in a line: in vitro.

Like-named read-outs stand apart in the source and are kept apart here.

BCRP, sequence (Q9UNQ0 whole entry): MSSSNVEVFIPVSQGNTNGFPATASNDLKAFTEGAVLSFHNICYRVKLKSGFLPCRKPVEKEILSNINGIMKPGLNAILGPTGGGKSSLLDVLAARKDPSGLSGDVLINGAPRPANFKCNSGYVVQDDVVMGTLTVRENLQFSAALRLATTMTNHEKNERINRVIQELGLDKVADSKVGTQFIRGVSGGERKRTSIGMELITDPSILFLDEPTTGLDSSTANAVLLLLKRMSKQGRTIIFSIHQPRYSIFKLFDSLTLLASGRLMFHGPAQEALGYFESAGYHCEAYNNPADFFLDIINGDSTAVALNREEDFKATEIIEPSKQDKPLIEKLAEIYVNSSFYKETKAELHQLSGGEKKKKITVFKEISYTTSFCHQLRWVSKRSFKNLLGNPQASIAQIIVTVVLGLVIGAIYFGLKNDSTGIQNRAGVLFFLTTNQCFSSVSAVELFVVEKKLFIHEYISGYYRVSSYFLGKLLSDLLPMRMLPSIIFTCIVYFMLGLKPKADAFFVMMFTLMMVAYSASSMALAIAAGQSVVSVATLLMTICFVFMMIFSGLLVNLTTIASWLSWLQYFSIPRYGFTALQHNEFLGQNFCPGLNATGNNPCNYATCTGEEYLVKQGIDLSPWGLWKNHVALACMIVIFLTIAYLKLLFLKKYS

Compound `CC[C@H]1OC(=O)[C@H](C)[C@@H](O[C@H]2C[C@@](C)(OC)[C@@H](O)[C@H](C)O2)[C@H](C)[C@@H](O[C@@H]2O[C@H](C)C[C@H](N(C)C)[C@H]2O)[C@](C)(O)C[C@@H](C)C(=O)[C@H](C)[C@@H](O)[C@]1(C)O` [Erythromycin] returned a Papp at 2 h, 10 μM in data set [1] of 0.2 ×10⁻⁶ cm/s.
The compound `Nc1nc2c(ncn2COCCO)c(=O)[nH]1` [Acyclovir] gave a Papp at 2 h, 10 μM in [1] of 0.9 ×10⁻⁶ cm/s. In data set [2], the viability at 96 h, 1 µM came out at 104%; the viability at 96 h, 10 µM worked out at 97.6%; the viability at 96 h, 100 µM is 91.1%.
In turn, `CCCC(=O)Nc1ccc(OCC(O)CNC(C)C)c(C(C)=O)c1` (centres unmarked) [Acebutolol] registered a Papp at 2 h, 10 μM in data set [1] of 0.4 ×10⁻⁶ cm/s. In [2], the viability at 96 h, 1 µM came out at 98.5% and the viability at 96 h, 10 µM stood at 97.5%.
In data set [1], `CNC(=C[N+](=O)[O-])NCCSCc1ccc(CN(C)C)o1` [Ranitidine] came in with a Papp A→B at 2 h, 10 μM of 0.2 ×10⁻⁶ cm/s and a Papp at 2 h, 10 μM of 0.1 ×10⁻⁶ cm/s. The “Papp A- > B SMI microtissues” value in data set [3] (Table V, mean of n = 2 SMI microtissue lots) was 2.2 ± 0.5 10^−6 cm^s−1. Also, the “Fraction absorbed in humans (class)” value in data set [4] (Table IX, class in brackets, no reference given) is recorded as “Moderate”. Besides, in [2], the viability at 96 h, 1 µM was 102%; the viability at 96 h, 10 µM was determined as 98.1%; the viability at 96 h, 100 µM worked out at 96%.
In data set [1], `CC(=O)CC(c1ccccc1)c1c(O)c2ccccc2oc1=O` (centres unmarked) [Warfarin] registered a Papp A→B at 2 h, 10 μM of 27.8 ± 7.6 ×10⁻⁶ cm/s. Besides, the Papp at 2 h, 10 μM in data set [1] was 28.6 ×10⁻⁶ cm/s; in data set [5] (Lot #1 Mean A- > B Papp), 48.5 ± 8.18 ×10⁻⁶ cm/s; in [5] (Lot #2 Mean A- > B Papp), 24.3 ± 0.86 ×10⁻⁶ cm/s; in [5] (Lot #3 Mean A- > B Papp), 19.9 ± 3.45 ×10⁻⁶ cm/s; in data set [5] (SMI mean A- > B Papp), 36.7 ± 16.8 ×10⁻⁶ cm/s. For the same compound, the “Papp A- > B SMI microtissues” value in [6] is recorded as 22.3 ± 0.5 10^−6 cm^s−1.
On to `CN/C(=N/CCSCc1nc[nH]c1C)NC#N` [Cimetidine], for which the Papp at 2 h, 10 μM in [1] was determined as 2.7 ×10⁻⁶ cm/s. In addition, in data set [2], the viability at 96 h, 1 µM turned out to be 109%; the viability at 96 h, 10 µM was found to be 103%; the viability at 96 h, 100 µM amounted to 96.1%.
On to `CN(C)C(=O)C(CCN1CCC(O)(c2ccc(Cl)cc2)CC1)(c1ccccc1)c1ccccc1` [Loperamide], for which the efflux ratio at 2 h, 10 μM in data set [7] (Efflux ratio, with inhibitor Verapamil 100 uM, substrate 10 μM, 2 hr) worked out at 6.5. In data set [7] (Mean A- > B Papp, No Inhibitor, substrate 10 μM, 2 hr, n = 3), this compound showed a Papp at 2 h, 10 μM of 0.9 ×10⁻⁶ cm/s. In [7] (Mean B- > A Papp, No Inhibitor, substrate 10 μM, 2 hr, n = 3), the Papp B→A at 2 h, 10 μM came to 15.5 ± 4.6 ×10⁻⁶ cm/s.
For `CC(C)c1nc(N(C)S(C)(=O)=O)nc(-c2ccc(F)cc2)c1/C=C/[C@@H](O)C[C@@H](O)CC(=O)O` [Rosuvastatin], the Papp B→A at 2 h, 10 μM in data set [7] was determined as 9.4 ± 1 ×10⁻⁶ cm/s; in data set [7] (with Elacider 100 uM), 5.3 ± 0.3 ×10⁻⁶ cm/s. For the same compound, the Papp at 2 h, 10 μM in data set [7] is 0.5 ± 0.07 ×10⁻⁶ cm/s.
With `CC(C)NCC(O)COc1cccc2ccccc12` (centres unmarked) [Propranolol], the “Caco-2 mean A- > B Papp” value in data set [8] is recorded as 12.9 10^−6 cm s^−1.
Compound `CCOC(=O)[C@H](CCc1ccccc1)N[C@@H](C)C(=O)N1CCC[C@H]1C(=O)O` [Enalapril] came in with a Papp at 2 h, 10 μM in data set [1] of 0.2 ×10⁻⁶ cm/s. Also, in [2], the viability at 96 h, 1 µM worked out at 109%; the viability at 96 h, 10 µM turned out to be 105%; the viability at 96 h, 100 µM was found to be 99%.
As to `C=C[C@H]1C[N@@]2CC[C@H]1C[C@@H]2[C@@H](O)c1ccnc2ccc(OC)cc12` [Quinidine], the “Fraction absorbed (%) in humans” value in data set [4] (in vivo) is 80%. In addition, in data set [2], the viability at 96 h, 1 µM turned out to be 99.4%; the viability at 96 h, 10 µM amounted to 100%; the viability at 96 h, 100 µM amounted to 99.3%.
For the compound `Cc1ncc2n1-c1ccc(Cl)cc1C(c1ccccc1F)=NC2` [Midazolam], the Papp A→B at 2 h, 10 μM in data set [9] (Transport A-B) came out at 14.4 ×10⁻⁶ cm/s; in data set [9] (line Transport B-A) it was 13.7 ×10⁻⁶ cm/s. The Efflux in data set [3] was 0.95.
For `O=C1NC(c2ccccc2)(c2ccccc2)C(=O)N1COP(=O)(O)O` [Fosphenytoin], in that order: 12.3 ×10⁻⁶ cm/s, 3.77 ×10⁻⁶ cm/s and 0.31.
Regarding `O=C1CN(/N=C/c2ccc([N+](=O)[O-])o2)C(=O)N1` [Nitrofurantoin], the Papp B→A at 2 h, 10 μM in [10] is 28.4 ± 3.3 ×10⁻⁶ cm/s; in data set [10] (with Novobiocin 50 uM) it was 18.9 ± 1 ×10⁻⁶ cm/s. Also, the Papp at 2 h, 10 μM in data set [10] worked out at 2.7 ± 1.6 ×10⁻⁶ cm/s; in data set [10] (with Novobiocin 50 uM), 4.7 ± 0.65 ×10⁻⁶ cm/s.
In the case of `C[C@H]1O[C@@H](O[C@H]2[C@@H](O)C[C@H](O[C@H]3[C@@H](O)C[C@H](O[C@H]4CC[C@@]5(C)[C@H](CC[C@@H]6[C@@H]5C[C@@H](O)[C@]5(C)[C@@H](C7=CC(=O)OC7)CC[C@]65O)C4)O[C@@H]3C)O[C@@H]2C)C[C@H](O)[C@@H]1O` [Digoxin], in [7], the Papp B→A at 2 h, 10 μM was determined as 29 ± 5 ×10⁻⁶ cm/s; the Papp at 2 h, 10 μM amounted to 12.6 ± 0.74 ×10⁻⁶ cm/s; the efflux ratio at 2 h, 10 μM stood at 2.3. In data set [7] (with Verapamil 100 uM), the Papp at 2 h, 10 μM turned out to be 16 ± 1.75 ×10⁻⁶ cm/s and the efflux ratio at 2 h, 10 μM turned out to be 1.4.

One may read the Papp as a coefficient for how fast a substance crosses the barrier. The viability is a read-out of living cells in per cent, often relative to untreated cells. As usually defined, the Papp A→B is how fast a substance crosses the layer from the apical side. A word on the efflux ratio: it is a quotient of directional permeabilities that is used to spot active efflux. What is called Papp B→A is the apparent permeability from the basolateral to the apical side of a cell layer.

Source of the values: paper PMC6599640 (Pharmaceutical research, 2018).
